Test results as given in patent US6436986B1, “Glucocorticoid receptor antagonists for treatment of diabetes” (Abbott Laboratories, priority 1999, dated 2002).

melting point: 217 to 218 °C
SMILES: COc1cccc2c1-c1cccc(C)c1C(NS(C)(=O)=O)(c1cccc(C(F)(F)F)c1)O2 (stereo not shown) [Example 1, N-[1-methoxy-7-methyl-6-[3-(trifluoromethyl)phenyl]-6H-dibenzo[b,d]pyran-6-yl]methanesulfonamide]
